The target of this assay is T1, SARM1 (50-724) (Homo sapiens, UniProt Q6SZW1).
T1 sequence (Q6SZW1 50-724): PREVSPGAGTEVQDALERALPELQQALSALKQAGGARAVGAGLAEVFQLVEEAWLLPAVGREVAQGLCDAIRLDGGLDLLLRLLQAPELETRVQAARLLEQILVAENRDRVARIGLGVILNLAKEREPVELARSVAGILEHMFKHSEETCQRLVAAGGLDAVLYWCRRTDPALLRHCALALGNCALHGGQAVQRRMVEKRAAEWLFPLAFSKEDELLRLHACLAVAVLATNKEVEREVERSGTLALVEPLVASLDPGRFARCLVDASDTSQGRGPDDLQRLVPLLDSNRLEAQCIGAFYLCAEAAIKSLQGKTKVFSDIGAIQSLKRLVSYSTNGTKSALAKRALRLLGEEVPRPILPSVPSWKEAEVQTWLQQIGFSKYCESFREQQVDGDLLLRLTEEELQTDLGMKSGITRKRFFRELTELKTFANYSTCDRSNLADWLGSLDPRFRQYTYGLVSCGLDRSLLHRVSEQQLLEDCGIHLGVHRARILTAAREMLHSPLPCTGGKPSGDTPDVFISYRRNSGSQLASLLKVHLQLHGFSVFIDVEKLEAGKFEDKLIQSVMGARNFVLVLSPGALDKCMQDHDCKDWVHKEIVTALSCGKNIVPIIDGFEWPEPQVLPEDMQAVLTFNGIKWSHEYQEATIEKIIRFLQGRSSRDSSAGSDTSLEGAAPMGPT
The assay can be described thus: biochemical.
Description: An enzymatic assay was performed in a 384-well plate using Dulbecco's phosphate-buffered saline (PBS) as the reaction buffer. […] The reaction was initiated by adding a mixture of 200 μM nicotinamide mononucleotide (NMN) as activator and 100 μM NAD^+ as substrate. After 1 h of incubation at room temperature, the reaction was terminated with 10 times volume of 70% acetonitrile, then centrifuged at 3800 rpm for 10 min.
A word on the IC50: it is the concentration that inhibits the measured activity by half. Read a high IC50 as lower potency. `CC(Nc1ccc2cc[nH]c(=O)c2c1)c1cccc(F)c1` (racemic) [Example 113, 7-((1-(3-fluorophenyl)ethyl)amino)isoquinolin-1(2H)-one] displayed an IC50 of 500 to 1000 nM.
In the case of `CC(Nc1ccc2cc[nH]c(=O)c2c1)c1cc(F)cc(F)c1` (racemic) [Example 114, 7-((1-(3,5-difluorophenyl)ethyl)amino)isoquinolin-1(2H)-one], the IC50 is 100 to 500 nM.
On to `CC(Nc1ccc2cc[nH]c(=O)c2c1)c1ccccc1F` (racemic) [Example 115, 7-((1-(2-fluorophenyl)ethyl)amino)isoquinolin-1(2H)-one], for which the IC50 was > 1000 nM.
In the case of `CC(Nc1ccc2cc[nH]c(=O)c2c1)c1ccc(Cl)cc1` (racemic) [Example 116, 7-((1-(4-chlorophenyl)ethyl)amino)isoquinolin-1(2H)-one] it was > 1000 nM.
Turning to `COc1ncc(C(C)Nc2ccc3cc[nH]c(=O)c3c2)cc1Cl` (racemic) [Example 117, 7-((1-(5-chloro-6-methoxypyridin-3-yl)ethyl)amino)isoquinolin-1(2H)-one], the IC50 lay within 100 to 500 nM.
In the case of `CC(Nc1ccc2cc[nH]c(=O)c2c1)c1nccc(Cl)c1Cl` (racemic) [Example 118, 7-((1-(3,4-dichloropyridin-2-yl)ethyl)amino)isoquinolin-1(2H)-one] it was < 100 nM.
In the case of `CC(Nc1ccc2c(c1)C(=O)NCC2)c1cnc(Cl)c(Cl)c1` (racemic) [Example 119, 7-((1-(5,6-dichloropyridin-3-yl)ethyl)amino)-3,4-dihydroisoquinolin-1(2H)-one] it was 500 to 1000 nM; in that of `CC(Nc1ccc2c(c1)C(=O)NC2)c1cccc(Cl)c1Cl` (racemic) [Example 120, 6-((1-(2,3-dichlorophenyl)ethyl)amino)isoindolin-1-one], > 1000 nM.
In the case of `CC(Nc1ccc2c(c1)NC(=O)CC2)c1cccc(Cl)c1Cl` (racemic) [Example 121, 7-((1-(2,3-dichlorophenyl)ethyl)amino)-3,4-dihydroquinolin-2(1H)-one] it was 500 to 1000 nM; in that of `CC(Nc1ccc2cc[nH]c(=O)c2c1)c1cc(Cl)cnc1Cl` (racemic) [Example 122, 7-((1-(2,5-dichloropyridin-3-yl)ethyl)amino)isoquinolin-1(2H)-one], 500 to 1000 nM.
Take `Cc1ccc(C(C)Nc2ccc3c(c2)C(=O)NCC3)cc1F` (racemic) [Example 123, 7-((1-(3-fluoro-4-methylphenyl)ethyl)amino)-3,4-dihydroisoquinolin-1(2H)-one]: the IC50 is > 1000 nM.
For the molecule `CCCC(Nc1ccc2c(c1)C(=O)NCC2)c1cc(C)cc(F)c1` (racemic) [Example 125, 7-((1-(3-fluoro-5-methylphenyl)butyl)amino)-3,4-dihydroisoquinolin-1(2H)-one], the IC50 lay in the range of 500 to 1000 nM.
In the case of `CCC(Nc1ccc2cc[nH]c(=O)c2c1)c1cccc(Cl)c1` (racemic) [Example 126, 7-((1-(3-chlorophenyl)propyl)amino)isoquinolin-1(2H)-one] it was 100 to 500 nM.
As for `Cc1cc(F)cc(C(Cc2ccccc2)Nc2ccc3c(c2)C(=O)NCC3)c1` (racemic) [Example 127, 7-((1-(3-fluoro-5-methylphenyl)-2-phenylethyl)amino)-3,4-dihydroisoquinolin-1(2H)-one], the IC50 is > 1000 nM.
With `CC(Nc1ccc2nc[nH]c(=O)c2c1)c1cccc(Cl)c1Cl` (racemic) [Example 128, 6-((1-(2,3-dichlorophenyl)ethyl)amino)quinazolin-4(3H)-one], the IC50 is < 100 nM.
The molecule `CC(Nc1ccc2cccnc2c1)c1cccc(Cl)c1Cl` (racemic) [Example 129, N-(1-(2,3-dichlorophenyl)ethyl)quinolin-7-amine] gave an IC50 of 500 to 1000 nM.
`CC(Nc1ccc2cc[nH]c(=O)c2c1)c1sc(Cl)nc1Cl` (racemic) [Example 130, 7-((1-(2,4-dichlorothiazol-5-yl)ethyl)amino)isoquinolin-1(2H)-one]: the IC50 is 100 to 500 nM.
Regarding `CC(Nc1ccc2cc[nH]c(=O)c2c1)c1ccnc(Cl)c1Cl` (racemic) [Example 131, 7-((1-(2,3-dichloropyridin-4-yl)ethyl)amino)isoquinolin-1(2H)-one], the IC50 was in the range of 100 to 500 nM.
For `CC(Nc1ccc2cc[nH]c(=O)c2c1)c1cc(Cl)ccc1Cl` (racemic) [Example 132, 7-((1-(2,5-dichlorophenyl)ethyl)amino)isoquinolin-1(2H)-one], the 50% inhibitory concentration (IC50) was < 100 nM.
Then `CC(Nc1ccc2ncn(C)c(=O)c2c1)c1cccc(Cl)c1Cl` (racemic) [Example 133, 6-((1-(2,3-dichlorophenyl)ethyl)amino)-3-methylquinazolin-4(3H)-one], with 100 to 500 nM; and `CC(Nc1ccc2ccccc2n1)c1cccc(Cl)c1Cl` (racemic) [Example 134, N-(1-(2,3-dichlorophenyl)ethyl)quinolin-2-amine], with > 1000 nM; and `CC(Nc1ccc2cc[nH]c(=O)c2c1)c1cc(F)ccc1Cl` (racemic) [Example 135, 7-((1-(2-chloro-5-fluorophenyl)ethyl)amino)isoquinolin-1(2H)-one], with < 100 nM.
`CC(Nc1ccc2cc[nH]c(=O)c2c1)c1cc(F)cc(Cl)c1Cl` (racemic) [Example 136, 7-((1-(2,3-dichloro-5-fluorophenyl)ethyl)amino)isoquinolin-1(2H)-one]: the IC50 was < 100 nM.
As for `CC(Nc1ccc2cc[nH]c(=O)c2c1)c1cc(F)cc(F)c1Cl` (racemic) [Example 137, 7-((1-(2-chloro-3,5-difluorophenyl)ethyl)amino)isoquinolin-1(2H)-one], the IC50 was < 100 nM.
Then `CC(Nc1ccc2cc[nH]c(=O)c2c1)c1cc(Cl)cc(Cl)c1Cl` (racemic) [Example 138, 7-((1-(2,3,5-trichlorophenyl)ethyl)amino)isoquinolin-1(2H)-one], with < 100 nM.
In the case of `CC(Nc1ccc2cc[nH]c(=O)c2c1)c1cccc(F)c1Cl` (racemic) [Example 139, 7-((1-(2-chloro-3-fluorophenyl)ethyl)amino)isoquinolin-1(2H)-one] it was 100 to 500 nM; in that of `CC(Nc1ccc2ccnn2c1)c1cccc(Cl)c1Cl` (racemic) [Example 140, N-(1-(2,3-dichlorophenyl)ethyl)pyrazolo[1,5-a]pyridin-6-amine], 500 to 1000 nM; in that of `CC(Nc1ccc2c(cnn2C)c1)c1cccc(Cl)c1Cl` (racemic) [Example 141, N-(1-(2,3-dichlorophenyl)ethyl)-1-methyl-1H-indazol-5-amine], > 1000 nM.
`CC(Nc1ccc2ccn(Cc3ccccc3)c(=O)c2c1)c1cccc(Cl)c1Cl` (racemic) [Example 142, 2-benzyl-7-((1-(2,3-dichlorophenyl)ethyl)amino)isoquinolin-1(2H)-one] registered an IC50 of 500 to 1000 nM.
In the case of `CCC(Nc1ccc2cc[nH]c(=O)c2c1)c1cccc(Cl)c1Cl` (racemic) [Example 143, 7-((1-(2,3-dichlorophenyl)propyl)amino)isoquinolin-1(2H)-one] it was < 100 nM; in that of `Cc1cc(F)cc(C(Nc2ccc3c(c2)C(=O)NCC3)C(C)C)c1` (racemic) [Example 144, 7-((1-(3-fluoro-5-methylphenyl)-2-methylpropyl)amino)-3,4-dihydroisoquinolin-1(2H)-one], 100 to 500 nM.
In the case of `C=CCCC(Nc1ccc2c(c1)C(=O)NCC2)c1cc(C)cc(F)c1` (racemic) [Example 145, 7-((1-(3-fluoro-5-methylphenyl)pent-4-en-1-yl)amino)-3,4-dihydroisoquinolin-1(2H)-one] it was 500 to 1000 nM; in that of `CCC(Nc1ccc2nc[nH]c(=O)c2c1)c1cccc(Cl)c1Cl` (racemic) [Example 146, 6-[1-(2,3-dichlorophenyl)propylamino]-3H-quinazolin-4-one], < 100 nM; in that of `CCC(Nc1ccc2c(c1)C(=O)NCN2)c1cccc(Cl)c1Cl` (racemic) [Example 147, 6-((1-(2,3-dichlorophenyl)propyl)amino)-2,3-dihydroquinazolin-4(1H)-one], 100 to 500 nM.
In the case of `CC(Nc1ccc2nccc(=O)n2c1)c1cccc(Cl)c1Cl` (racemic) [Example 148, 7-((1-(2,3-dichlorophenyl)ethyl)amino)-4H-pyrido[1,2-a]pyrimidin-4-one], the IC50 is > 1000 nM.
`CC(Nc1ccc2cnn(C)c(=O)c2c1)c1cccc(Cl)c1Cl` (racemic) [Example 149, 7-((1-(2,3-dichlorophenyl)ethyl)amino)-2-methylphthalazin-1(2H)-one] came in with an IC50 of 100 to 500 nM.
Then `CC(Nc1cccc(-c2cccnn2)c1)c1cccc(Cl)c1Cl` (racemic) [Example 150, N-(1-(2,3-dichlorophenyl)ethyl)-3-(pyridazin-3-yl)aniline], with > 1000 nM; and `CC(Nc1ccc2ccn(C)c(=O)c2c1)c1c(Cl)cccc1Cl` (racemic) [Example 151, 7-((1-(2,6-dichlorophenyl)ethyl)amino)-2-methylisoquinolin-1(2H)-one], with 100 to 500 nM.
In the case of `CCC(Nc1ccc2cc[nH]c(=O)c2c1)c1nccc(Cl)c1Cl` (racemic) [Example 153, 7-((1-(3,4-dichloropyridin-2-yl)propyl)amino)isoquinolin-1(2H)-one] it was < 100 nM.

The record behind these values is patent publication US20250320184A1 (SIRONAX LTD., priority 2022, published 2025).
